Test [1] relates to tumor expressing wild-type E. coli PNP enzyme. To be noted: cited from earlier work.
Test [2] concerns T. vaginalis PNP. To be noted: Wang et al.; cited from earlier work.
Test [3] deals with T. vaginalis PNP. The experiment in a line: Substrate cleavage by wild-type Tv-PNP (HPLC). It counts as biochemical, Trichomonas vaginalis. The protocol: (§1) The method quantitatively measures the cleavage of substrates in vitro. The purine analog nucleosides (0.1 mM in 500 μl of 100 mM HEPES, pH 7.4, 50 mM potassium phosphate) are combined with 100 μg/ml Tv-PNP or wild-type E. coli PNP. The reaction mixtures are incubated at 25° C. for 1 hour, and the reactions stopped by boiling each sample for 2 minutes. Protein concentration and time of assay are varied depending on activity of enzyme for a particular substrate. Each sample is analyzed by reverse phase HPLC to measure conversion from substrate to product. The nucleoside and purine analogs are eluted from a Spherisorb ODSI (5 μm) column (Keystone Scientific, Inc., State College, Pa.) with a solvent containing 50 mM ammonium dihydrogen phosphate (95%) and acetonitrile (5%). Products are detected by absorbance at 254 nm, and are identified by comparing their retention times and absorption spectra with authentic control samples.
Numerous compounds are tested for efficiency as substrate for Tv-PNP in parallel comparison with E. coli PNP. The compounds include various analogs of adenosine, of inosine, of MeP-dR, and of fluoro- or chloro-substituted adenosine. The enzymes are incubated with 100 micromolar of each compound listed in the table and the rate of enzymatic cleavage is determined by HPLC separation of the base from the nucleoside. […] It is appreciated that the greater biological activity of the Tv-PNP enzyme allows for greater activity in impairing abnormal cell growth when the Tv-PNP is used for treatment of pathological conditions using F-araA as a prodrug substrate.

A further test addresses E. coli PNP (Escherichia coli, UniProt P0ABP8). Briefly: Substrate cleavage by wild-type E. coli PNP (HPLC). It counts as biochemical. Particulars: 100 micromolar substrate, HPLC separation of base from nucleoside. The protocol:
as §1
Numerous compounds are tested for efficiency as substrate for Tv-PNP in parallel comparison with E. coli PNP. […] The enzymes are incubated with 100 micromolar of each compound listed in the table and the rate of enzymatic cleavage is determined by HPLC separation of the base from the nucleoside.

Test [4] in a line: Cleavage of F-araA by PNPs of various origins (HPLC). It counts as biochemical.
The nature of test [5]: Cleavage of MeP-dR by PNPs of various origins (HPLC). Particulars: 100 μM MeP-dR, enzymes of various purities. It counts as biochemical.
Another test concerns tumors. Briefly: In vivo efficacy experiments, tm-PNP versus M65V.

Sequence of E. coli PNP (P0ABP8 whole entry): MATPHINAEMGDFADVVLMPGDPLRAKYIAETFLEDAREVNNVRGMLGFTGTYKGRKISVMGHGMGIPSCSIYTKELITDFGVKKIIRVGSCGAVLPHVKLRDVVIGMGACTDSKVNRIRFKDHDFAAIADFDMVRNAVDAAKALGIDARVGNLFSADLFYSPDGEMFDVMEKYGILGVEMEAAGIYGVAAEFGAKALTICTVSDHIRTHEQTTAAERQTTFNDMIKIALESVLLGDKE

Turning to `Nc1nc(F)nc2c1ncn2[C@@H]1O[C@H](CO)[C@@H](O)[C@@H]1O` [9-(β-D-arabinofuranosyl)-2-fluoroadenine, reference compound], the tumor response entry in test [1] is given as “complete responses”. Also, the “activity of Tv-PNP towards substrate, conventional understanding” value in the test with T. vaginalis PNP [2] was “does not have appreciable activity”. Besides, the “rate of enzymatic cleavage by T. vaginalis PNP” value in the test with T. vaginalis PNP [3] (100 micromolar substrate, HPLC separation of base from nucleoside) is 32,000 nanomoles per milligrams per hour. Also, in the test with T. vaginalis PNP [3] (Tv-PNP rate / E. coli PNP rate), the “cleavage rate by Tv-PNP relative to E. coli PNP” value is listed as “approximately 23 times”. Also, in the test with T. vaginalis PNP [3] (Vmax/Km ratio), the “catalytic efficiency of Tv-PNP relative to E. coli PNP” value worked out at 25 fold. Besides, the “activity of Tv-PNP as compared to wild-type E. coli PNP” value in the test on T. vaginalis PNP [3] (summary of Table 1) was “more activity”. Further, the “rate of enzymatic cleavage by E. coli PNP” value at E. coli PNP was 1,250 nanomoles per milligrams per hour.

B1: tm-PNP: tailed mutant E. coli PNP, 30 amino acid tail in place of the terminal glutamic acid (SEQ ID NO: 8) (protein, listed as Trichomonas vaginalis)
chain: MATPHINAEMGDFADVVLMPGDPLRAKYIAETFLEDAREVNNVRGMLGFTGTYKGRKISVMGHGMGIPSCSIYTKELITDFGVKKIIRVGSCGAVLPHVKLRDVVIGMGACTDSKVNRIRFKDHDFAAIADFDMVRNAVDAAKALGIDARVGNLFSADLFYSPDGEMFDVMEKYGILGVEMEAAGIYGVAAEFGAKALTICTVSDHIRTHEQTTAAERQTTFNDMIKIALESVLLGDKGKRPRGSSRVDLQACKLGIFVKEPYFCGVT
Take B1: in test [4], the MeP-dR/F-araA cleavage ratio is 198. Also, the “F-araA rate of cleavage” value in test [4] (100 μM F-araA, enzymes of various purities) is 4.8 nmol/mg/h. The “selectivity of cleavage of F-araA relative to wild-type E. coli PNP” value in test [4] (from MeP-dR/F-araA ratios 198 vs 422) is on record as 2.3 fold. The “MeP-dR rate of cleavage” value in test [5] came out at 948 nmol/mg/h. In the test with tumors, the “antitumoral activity relative to M65V” value is on record as “considerably greater antitumoral activity”.
